Active and inactive are the calls of the source. How the calls were made is not given here.
Tested on: HeLa cell count decrease
Assay: decrease in HeLa cell numbers, dose-response curve, cell enumeration, 50% inhibitory concentration (AID 1117347)

| Structure (SMILES) | IC50 |
| --- | --- |
| CCCSc1ccc2nc(NC(=O)OC)[nH]c2c1 | 37.7 nM |
| C[C@]12CC[C@@H]3c4ccc(O)cc4CC[C@H]3[C@@H]1CC[C@@H]2OC(=O)CCC1CCCC1 | > 10000 nM (inactive) |
| Oc1c(I)cc(Cl)c2cccnc12 | > 10000 nM (inactive) |

Now from value to molecule:

| IC50 | Structure (SMILES) |
| --- | --- |
| 472 nM | C[n+]1c2cc(N)ccc2cc2ccc(N)cc21 (tested in a mixture with another compound) |
| 2110 nM | CCOc1ccc2nc3cc(N)ccc3c(N)c2c1 |
| 144 nM | O=C(Nc1ccc([N+](=O)[O-])cc1Cl)c1cc(Cl)ccc1O |
